≈ marks a conversion by molar mass, not a printed value.
Legend:
Experiment in all cases: MIC (Minimum Inhibitory Concentration) determination, broth dilution in 96-well plates
Type in all cases: cell-based
[1] = system: Streptococcus pyogenes DA7121; settings: TH broth, aerobic, 37° C., 24 h, cells at t = 0 ˜10^6/ml; for MIC: Streptococcus pyogenes, DA7121, read-out: Antibacterial activity, MIC, Strep. pyogenes DA7121
Description: (§1) The fusidic acid analogues of the invention and the reference compounds 201 (fusidic acid (as the sodium salt)), 207, 205 203 and 206 (see notes to Table A) were stored in powder form at +4° C. When used in assays, they were dissolved in 95% EtOH (3.84 mg/ml) and kept for a maximum of 1 month at −20° C. before being discarded. [table] LB media (per 1000 ml ddH2O: 10 g Bacto-tryptone, 5 g yeast extract, 10 g NaCl). THB (Todd-Hewitt Broth) media, SIGMA, product number: T1438 (per 1000 ml ddH2O: 50 g Beef-Heart Infusion, 20 g Casein peptone, 2 g Dextrose, 2 g NaHCO3, 2.5 g NaCl, 0.4 g Na2HPO4). Plates were made using an agar concentration of 1.5%. Blood-agar plates contained an additional 5% (v/v) defibrinated horse blood purchased from SLU (Swedish Agricultural University), Uppsala. MIC tests on the compounds were done in 96-well micro titer plates (Thermo Labsystems). 4×10^5 bacteria were inoculated in 0.4 ml growth media (S. aureus, LB broth, S. pyogenes—TH broth) containing serial dilutions of the compound to be tested starting from 128 μg/ml (dilution factor 2, e.g. 128 μg/ml, 64 μg/ml, . . . , 0.016 μg/ml). The criterion for sensitivity is no visible growth after a 24 h, aerobic incubation at 37° C. Each compound was tested at least twice, and fusidic acid was always included as an experimental control. [table]

[2] = system: Staphylococcus aureus 8325-4; settings: LB broth, aerobic, 37° C., 24 h, cells at t = 0 ˜10^6/ml
Description: as §1

[3] = system: Streptococcus pyogenes DA7864; settings: TH broth, aerobic, 37° C., 24 h, cells at t = 0 ˜10^6/ml; for MIC: Streptococcus pyogenes, DA7864, read-out: Antibacterial activity, MIC, Strep. pyogenes DA7864
Description: as §1

[4] = system: Staphylococcus aureus FDA486; settings: LB broth, aerobic, 37° C., 24 h, cells at t = 0 ˜10^6/ml; for MIC: Staphylococcus aureus, FDA486, read-out: Antibacterial activity, MIC, Staph. aureus FDA486
Description: as §1

[5] = system: Staphylococcus aureus CJ12; settings: LB broth, aerobic, 37° C., 24 h, cells at t = 0 ˜10^6/ml; for MIC: Staphylococcus aureus, CJ12, read-out: Antibacterial activity, MIC, Staph. aureus CJ12
Description: as §1

Compound | MIC [1] [µg/mL] | MIC ([2]; Staphylococcus aureus, 83254, read-out: Antibacterial activity, MIC, Staph. aureus 8325-4) [µg/mL] | MIC [3] [µg/mL] | MIC [4] [µg/mL] | MIC [5] [µg/mL] | Antibacterial activity, MIC, Strep. pyogenes DA7121 [1] [µg/mL] | Antibacterial activity, MIC, Strep. pyogenes DA7864 [3] [µg/mL] | Antibacterial activity, MIC, Staph. aureus FDA486 [4] [µg/mL] | Antibacterial activity, MIC, Staph. aureus CJ12 [5] [µg/mL] | Antibacterial activity, MIC, Staph. aureus 8325-4 [2] [µg/mL]
CC(=O)O[C@H]1C[C@@]2(C)[C@@H](C[C@@H](O)[C@H]3[C@@]4(C)CC[C@@H](O)[C@@H](C)[C@@H]4CC[C@@]32C)/C1=C(\CCC=C(C)C)C(=O)O [Ref. comp. 201, Fusidic acid] | 3.5 (≈ 6.77 µM) | 0.03 (≈ 0.0581 µM) | 3.5 (≈ 6.77 µM) | 0.11 (≈ 0.213 µM) | 0.03 (≈ 0.0581 µM) |  |  |  |  | 
CC(=O)O[C@H]1C[C@@]2(C)[C@@H](C[C@@H](O)[C@H]3[C@@]4(C)CC[C@@H](O)[C@@H](C)[C@@H]4CC[C@@]32C)/C1=C(\CCC(Br)=C(C)C)C(=O)O [Compound 108, 24-bromo-fusidic acid] |  |  |  |  |  | 0.8 | 0.8 | 0.05 | 0.03 | 
CCO[C@H]1C[C@@]2(C)[C@@H](C[C@@H](O)[C@H]3[C@@]4(C)CC[C@@H](O)[C@@H](C)[C@@H]4CC[C@@]32C)/C1=C(\CCC=C(C)C)C(=O)O [Ref. comp. 203, 16-Deacetoxy-16β-ethoxy-fusidic acid] |  |  |  |  |  | 7 | 14 | 0.22 | 0.06 | 0.22
24-bromo-17S,20S-dihydrofusidic acid [Compound 115] |  |  |  |  |  | 1.8 | 1.8 | 0.88 | 0.06 | 0.11
24-bromo-16-deacetoxy-16β-ethoxy-fusidic acid [Compound 116] |  |  |  |  |  | 7 | 7 | 0.44 | 0.06 | 0.11
24-bromo-17S,20S-methylene-fusidic acid [Compound 122] |  |  |  |  |  | 7 | 7 | 0.88 | 0.22 | 0.88
CC(=O)O[C@H]1C[C@@]2(C)[C@@H](C[C@@H](O)[C@H]3[C@@]4(C)CC[C@@H](O)[C@@H](C)[C@@H]4CC[C@@]32C)[C@]12C[C@]2(CCC=C(C)C)C(=O)O [Ref. comp. 206, 17S,20S-Methylene-fusidic acid] |  |  |  |  |  | >32 | 28 | 0.22 | 0.06 | 0.11
CC(C)=C(Br)CC/C(C(=O)O)=C1\C2C[C@@H](O)C3[C@@]4(C)CC[C@@H](O)[C@@H](C)C4CC[C@]3(C)[C@@]2(C)C[C@@H]1[S+]([O-])C(C)C (stereo partly drawn) [Compound 113, 24-bromo-16-deacetoxy-16β-isopropylsulfinyl-fusidic acid] | 0.4 (≈ 0.637 µM) |  | 0.4 (≈ 0.637 µM) | 0.22 (≈ 0.35 µM) | 0.11 (≈ 0.175 µM) |  |  |  |  | 
CC(C)=CCC/C(C(=O)O)=C1/[C@@H]([S+]([O-])C(C)C)C[C@@]2(C)[C@H]1C[C@@H](O)[C@H]1[C@@]3(C)CC[C@@H](O)[C@@H](C)[C@@H]3CC[C@@]12C (stereo partly drawn) [Ref. comp. 207, 16-Deacetoxy-16β-isopropylsulfinyl-fusidic acid] |  |  |  |  |  | 1.6 | 1.6 | 0.22 | 0.05 | 
CC(=O)OC1CC2(C)C(CC(O)C3C4(C)CCC(O)C(C)C4CCC32C)C1C(CCC=C(C)C)C(=O)O (stereo not drawn) [Ref. comp. 205, 17S,20S-Dihydrofusidic acid] |  |  |  |  |  | 14 | 28 | 0.44 | 0.06 | 0.11

From patent US20070105826A1, “Novel fusidic acid derivatives” (LEO PHARMA A/S, priority 2003, published 2007)
